This is an account of results in PubChem BioAssay AID743491 (The Scripps Research Institute Molecular Screening Center, 2014).

Activity calls are given as the source filed them. No rule for the calls is given here. A value given as a limit tells only on which side of the number the result lay.

For the experiment, the target named is Trace amine-associated receptor 1 (Homo sapiens) (UniProt Q96RJ0). Briefly: activators of human TAAR1 signalling – cell-based, fluorescence, MedChem round 1, dose response (AID 743491). The note with it: cells expressing human TAAR1, fluorescence agonist read-out.
Sequence of Trace amine-associated receptor 1 (Homo sapiens) (Q96RJ0 whole entry, looked up): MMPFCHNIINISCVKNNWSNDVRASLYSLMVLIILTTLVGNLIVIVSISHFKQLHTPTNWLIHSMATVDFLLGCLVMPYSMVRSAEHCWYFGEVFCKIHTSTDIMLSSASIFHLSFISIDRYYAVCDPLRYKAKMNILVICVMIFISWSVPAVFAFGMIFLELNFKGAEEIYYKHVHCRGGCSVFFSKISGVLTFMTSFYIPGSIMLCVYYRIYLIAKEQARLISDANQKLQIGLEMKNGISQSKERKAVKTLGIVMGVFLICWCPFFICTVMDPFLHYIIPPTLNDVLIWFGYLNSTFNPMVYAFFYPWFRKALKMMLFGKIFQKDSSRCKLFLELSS
What is called EC50 is the concentration giving half of the maximal effect. In the case of `O=C(CCN1C[C@@H](C(=O)O)[C@H](c2ccccc2)C1)NCc1cccs1`, the EC50 is > 29900 nM (inactive). The result for `O=C(CCN1CCC(c2ccccc2)C1)c1ccccc1` (stereo unspecified) reads 174 nM.

In the case of `NC(=O)CCN1C[C@H](c2ccccc2)[C@@H]2[C@H]1C1CCN2CC1`, the EC50 was > 29900 nM (inactive).

On to `O=C(CCN1CCC(O)(c2ccccc2)C1)c1ccc2c(c1)OCCO2` (stereo unspecified), for which the EC50 is > 29900 nM (inactive). Turning to `O=C(CCN1C[C@@H](C(=O)O)[C@H](c2ccccc2)C1)NC1CCCC1`, the EC50 is > 29900 nM (inactive). Under `CC(CN1CCC(c2ccccc2)C1)C(=O)c1ccc2c(c1)OCCO2` (stereo unspecified) stands “inactive”; under `O=C(CCN1CCC(O)(c2ccc(F)cc2)C1)c1ccc2c(c1)OCCO2` (stereo unspecified), > 29900 nM (inactive). With `CC(CN1CCCC1Cc1ccccc1)C(=O)c1ccc2c(c1)OCCO2` (stereo unspecified), the EC50 is 678 nM. Under `Cc1ccc(C(=O)CCN2CCC(c3ccccc3)C2)cc1` (stereo unspecified) stands 114 nM; under `CC1CN(CCC(=O)c2ccc3c(c2)OCCO3)CC1c1ccccc1` (stereo unspecified), 378 nM; under `O=C(CCN1C[C@@H](C(=O)O)[C@H](c2cccc(F)c2)C1)NC1CC1`, > 29900 nM (inactive).
